Laboratory results taken from EP4707280A1, “1,4-CINEOLE DERIVATIVE AND INTERMEDIATE THEREOF, HERBICIDE CONTAINING SAID DERIVATIVE AS ACTIVE INGREDIENT, METHOD FOR USING HERBICIDE, AND METHOD FOR PREPARING AGROCHEMICAL COMPOSITION” (HOKKO CHEMICAL INDUSTRY CO., LTD., priority 2023, dated 2024).

What was measured:
Format in all cases: in vivo
[1] = tested on: Echinochloa crus-galli var. formosensis; assay: Test Example 2: herbicidal effect test by application during growth period of paddy rice; details: Echinochloa crus-galli; 120 g per 10 ares; applied seven days after sowing, flooded pots; 14 days after application; read-out: weed inhibition rate
In short: (§1)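 Greenhouse pots of flooded paddy soil, seeded shallowly with 30 seeds per weed, are treated on day 7 by dropper with diluted emulsifiable concentrate equal to 120 g a.i./10 a. Duplicate pots are scored for inhibition rate 14 days post-application.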

Monochoria vaginalis [2] = assay: as above; details: Pontederia vaginalis; 120 g per 10 ares; applied seven days after sowing, flooded pots; 14 days after application; read-out: weed inhibition rate
In short: as §1

Scirpus juncoides [3] = assay: as above; details: Schoenoplectiella juncoides; 120 g per 10 ares; applied seven days after sowing, flooded pots; 14 days after application; read-out: weed inhibition rate
In short: as §1

[4] = tested on: Echinochloa crus-galli var. formosensis; assay: Test Example 5: herbicidal effect test by soil application in paddy rice (low dose); details: Echinochloa crus-galli, soil, 336 h; 7.5 g per 10 ares; applied immediately after sowing, flooded pots; 14 days after application; read-out: weed inhibition rate
In short: (§2)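 7.5 g a.i./10 a applied by dropper into ~3 cm floodwater immediately post-sowing (seeds 0–1 cm, 30 per species; puddled fertilized paddy soil, glasshouse). Duplicates; day-14 inhibition %.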

Monochoria vaginalis [5] = assay: as above; details: Pontederia vaginalis, 336 h, 7.5 g per 10 ares, applied immediately after sowing, flooded pots, 14 days after application, read-out: weed inhibition rate
In short: as §2

Scirpus juncoides [6] = assay: as above; details: Schoenoplectiella juncoides, 336 h, 7.5 g per 10 ares, applied immediately after sowing, flooded pots, 14 days after application, read-out: weed inhibition rate
In short: as §2

Monochoria vaginalis [7] = assay: Test Example 6: herbicidal effect test by application during growth period of paddy rice (low dose); details: Pontederia vaginalis; 7.5 g per 10 ares; applied seven days after sowing, flooded pots; 14 days after application; read-out: weed inhibition rate
In short: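 Puddled, fertilised paddy soil was sown with 30 seeds per species and flooded to about 3 cm. After 7 days in a glass greenhouse, the diluted emulsifiable concentrate went into the water by dropper at 7.5 g/10 a. Effect scored at 14 days.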

Digitaria ciliaris = assay: Test Example 7: herbicidal effect test by soil application in upland field (low dose); details: Digitaria ciliaris, 7.5 g per 10 ares, sprayed one day after sowing, 14 days after application, read-out: weed inhibition rate
In short: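 Duplicate pots of alluvial loam, seeds incorporated in the surface 1 cm. Soil surface sprayed 1 d after sowing (EC in water, 100 L/10 a; 7.5 g a.i./10 a). Endpoint: % inhibition, day 14.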

Amaranthus viridis = assay: Test Example 3: herbicidal effect test by soil application in upland field; details: Amaranthus viridis, 120 g per 10 ares, sprayed one day after sowing, 14 days after application, read-out: weed inhibition rate
In short: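 Weed inhibition (%) was assessed 14 days after treatment, in duplicate per concentration group. Seeds had been mixed into the upper 1 cm of upland alluvial loam, and the soil surface was sprayed one day later with the diluted emulsifiable concentrate at 120 g active ingredient per 10 ares.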

CC(C)[C@]12C[C@@H](OCc3ccccc3Cl)[C@](C)(C[C@@H]1Br)O2 [1-20, (1S,2R,4R,5S)-5-bromo-2-[(2-chlorophenyl)methoxy]-1-methyl-4-isopropyl-7-oxabicyclo[2.2.1]heptane]
≥ 80%: inhibition at 1200 g/ha [1] | inhibition at 1200 g/ha (Monochoria vaginalis [2]) | inhibition at 1200 g/ha (Scirpus juncoides [3]) | inhibition at 75 g/ha [4] | inhibition at 75 g/ha (Monochoria vaginalis [5]) | inhibition at 75 g/ha (Scirpus juncoides [6]) | inhibition at 75 g/ha (Monochoria vaginalis [7]) | inhibition at 75 g/ha (Digitaria ciliaris)

CC(C)[C@]12C[C@@H](OCc3ccccc3F)[C@](C)(CC1C)O2 (stereo partly drawn) [1-92, (1S,2R,4R)-2-((2-fluorobenzyl)oxy)-4-isopropyl-1,5-dimethyl-7-oxabicyclo[2.2.1]heptane]
≥ 80%: inhibition at 1200 g/ha [1] | inhibition at 1200 g/ha (Monochoria vaginalis [2]) | inhibition at 1200 g/ha (Scirpus juncoides [3]) | inhibition at 75 g/ha [4] | inhibition at 75 g/ha (Monochoria vaginalis [5]) | inhibition at 75 g/ha (Scirpus juncoides [6]) | inhibition at 75 g/ha (Monochoria vaginalis [7]) | inhibition at 75 g/ha (Digitaria ciliaris)

CC(C)[C@]12C[C@@H](OCc3ccccc3F)[C@](C)(C[C@H]1C)O2 [1-94, (1S,2R,4R,5R)-2-[(2-fluorophenyl)methoxy]-1,5-dimethyl-4-isopropyl-7-oxabicyclo[2.2.1]heptane]
≥ 80%: inhibition at 1200 g/ha [1] | inhibition at 1200 g/ha (Monochoria vaginalis [2]) | inhibition at 75 g/ha [4] | inhibition at 75 g/ha (Monochoria vaginalis [5]) | inhibition at 75 g/ha (Scirpus juncoides [6]) | inhibition at 75 g/ha (Monochoria vaginalis [7]) | inhibition at 75 g/ha (Digitaria ciliaris)

CC(C)C1C[C@]2(C)O[C@@]1(C(C)C)C[C@H]2OCc1ccccc1F (stereo partly drawn) [1-133, (1S,2R,4R)-2-[(2-fluorobenzyl)oxy]-4,5-isopropyl-1-methyl-7-oxabicyclo[2.2.1]heptane]
≥ 80%: inhibition at 1200 g/ha [1] | inhibition at 1200 g/ha (Monochoria vaginalis [2]) | inhibition at 1200 g/ha (Scirpus juncoides [3]) | inhibition at 75 g/ha [4] | inhibition at 75 g/ha (Monochoria vaginalis [5]) | inhibition at 75 g/ha (Scirpus juncoides [6]) | inhibition at 75 g/ha (Monochoria vaginalis [7]) | inhibition at 75 g/ha (Digitaria ciliaris)

CCOC(C)O[C@H]1C[C@]2(C)O[C@@]1(C(C)C)C[C@H]2OCc1ccccc1C (stereo partly drawn) [1-208, (1R,2S,4S,5R)-2-(1-ethoxyethoxy)-1-isopropyl-4-methyl-5-((2-methylbenzyl)oxy)-7-oxabicyclo[2.2.1]heptane]
≥ 80%: inhibition at 1200 g/ha [1] | inhibition at 1200 g/ha (Scirpus juncoides [3]) | inhibition at 1200 g/ha (Amaranthus viridis) | inhibition at 75 g/ha [4] | inhibition at 75 g/ha (Digitaria ciliaris)

CC(C)[C@]12C[C@@H](OCc3cccc(F)c3)[C@](C)(C[C@@H]1Br)O2 [1-690, (1S,2R,4R,5S)-5-bromo-2-[(3-fluorophenyl)methoxy]-1-methyl-4-isopropyl-7-oxabicyclo[2.2.1]heptane]
≥ 80%: inhibition at 1200 g/ha [1] | inhibition at 1200 g/ha (Monochoria vaginalis [2]) | inhibition at 1200 g/ha (Scirpus juncoides [3]) | inhibition at 75 g/ha [4] | inhibition at 75 g/ha (Monochoria vaginalis [5]) | inhibition at 75 g/ha (Monochoria vaginalis [7]) | inhibition at 75 g/ha (Digitaria ciliaris)

CC(C)[C@]12C[C@@H](OCc3c(Cl)cccc3Cl)[C@](C)(C[C@@H]1Br)O2 [1-712, (1S,2R,4R,5S)-5-bromo-2-[(2,6-dichlorophenyl)methoxy]-1-methyl-4-isopropyl-7-oxabicyclo[2.2.1]heptane]
≥ 80%: inhibition at 1200 g/ha [1] | inhibition at 1200 g/ha (Monochoria vaginalis [2]) | inhibition at 1200 g/ha (Scirpus juncoides [3]) | inhibition at 75 g/ha [4] | inhibition at 75 g/ha (Monochoria vaginalis [5]) | inhibition at 75 g/ha (Monochoria vaginalis [7]) | inhibition at 75 g/ha (Digitaria ciliaris)

CC(C)[C@]12C[C@@H](OCc3c(F)cccc3Cl)[C@](C)(C[C@@H]1Br)O2 [1-713, (1S,2R,4R,5S)-5-bromo-2-[(2-chloro-6-fluorophenyl)methoxy]-1-methyl-4-isopropyl-7-oxabicyclo[2.2.1]heptane]
≥ 80%: inhibition at 1200 g/ha [1] | inhibition at 1200 g/ha (Monochoria vaginalis [2]) | inhibition at 1200 g/ha (Scirpus juncoides [3]) | inhibition at 75 g/ha [4] | inhibition at 75 g/ha (Monochoria vaginalis [5]) | inhibition at 75 g/ha (Monochoria vaginalis [7]) | inhibition at 75 g/ha (Digitaria ciliaris)

CC(C)[C@]12C[C@@H](OCc3cccs3)[C@](C)(C[C@@H]1Br)O2 [1-721, (1S,2R,4R,5S)-5-bromo-1-methyl-4-isopropyl-2-(thiophen-2-ylmethoxy)-7-oxabicyclo[2.2.1]heptane]
≥ 80%: inhibition at 1200 g/ha [1] | inhibition at 1200 g/ha (Monochoria vaginalis [2]) | inhibition at 75 g/ha [4] | inhibition at 75 g/ha (Monochoria vaginalis [5]) | inhibition at 75 g/ha (Scirpus juncoides [6]) | inhibition at 75 g/ha (Monochoria vaginalis [7]) | inhibition at 75 g/ha (Digitaria ciliaris)

CC(C)[C@]12C[C@@H](OCc3c(F)cccc3Br)[C@](C)(C[C@@H]1Br)O2 [1-1600, (1S,2R,4R,5S)-5-bromo-2-[(2-bromo-6-fluorophenyl)methoxy]-1-methyl-4-isopropyl-7-oxabicyclo[2.2.1]heptane]
≥ 80%: inhibition at 1200 g/ha [1] | inhibition at 1200 g/ha (Monochoria vaginalis [2]) | inhibition at 1200 g/ha (Scirpus juncoides [3]) | inhibition at 75 g/ha [4] | inhibition at 75 g/ha (Monochoria vaginalis [7]) | inhibition at 75 g/ha (Digitaria ciliaris)

CCCO[C@H]1C[C@]2(C)O[C@@]1(C(C)C)C[C@H]2OCc1ccccc1F [1-1604, (1S,2R,4R,SS)-2-[(2-fluorophenyl)methoxy]-1-methyl-4-isopropyl-5-propoxy-7-oxabicyclo[2.2.1]heptane]
≥ 80%: inhibition at 1200 g/ha [1] | inhibition at 1200 g/ha (Scirpus juncoides [3]) | inhibition at 75 g/ha [4] | inhibition at 75 g/ha (Monochoria vaginalis [5]) | inhibition at 75 g/ha (Scirpus juncoides [6]) | inhibition at 75 g/ha (Monochoria vaginalis [7]) | inhibition at 75 g/ha (Digitaria ciliaris)

CC(C)[C@]12C[C@@H](OCc3ccccc3Br)[C@](C)(CC1=O)O2 [2-13, (1R,4S,5R)-5-((2-bromobenzyl)oxy)-1-isopropyl-4-methyl-7-oxabicyclo[2.2.1]heptan-2-one]
≥ 80%: inhibition at 1200 g/ha [1] | inhibition at 1200 g/ha (Monochoria vaginalis [2]) | inhibition at 1200 g/ha (Scirpus juncoides [3]) | inhibition at 75 g/ha [4] | inhibition at 75 g/ha (Monochoria vaginalis [5]) | inhibition at 75 g/ha (Scirpus juncoides [6]) | inhibition at 75 g/ha (Monochoria vaginalis [7]) | inhibition at 75 g/ha (Digitaria ciliaris)

CC(C)[C@]12C[C@@H](OCc3c(F)cccc3Cl)[C@](C)(CC1=O)O2 [2-28, (1R,4S,5R)-5-((2-chloro-6-fluorobenzyl)oxy)-1-isopropyl-4-methyl-7-oxabicyclo[2.2.1]heptan-2-one]
≥ 80%: inhibition at 1200 g/ha [1] | inhibition at 1200 g/ha (Monochoria vaginalis [2]) | inhibition at 1200 g/ha (Scirpus juncoides [3]) | inhibition at 75 g/ha [4] | inhibition at 75 g/ha (Monochoria vaginalis [5]) | inhibition at 75 g/ha (Scirpus juncoides [6]) | inhibition at 75 g/ha (Monochoria vaginalis [7]) | inhibition at 75 g/ha (Digitaria ciliaris)

Cc1ccccc1CO[C@@H]1C[C@]2(C(C)C)O[C@@]1(C)C/C2=N\O [2-191, (1R,4S,5R,E)-1-isopropyl-4-methyl-5-((2-methylbenzyl)oxy)-7-oxabicyclo[2.2.1]heptan-2-one oxime]
≥ 80%: inhibition at 1200 g/ha [1] | inhibition at 1200 g/ha (Monochoria vaginalis [2]) | inhibition at 1200 g/ha (Scirpus juncoides [3]) | inhibition at 75 g/ha [4] | inhibition at 75 g/ha (Monochoria vaginalis [5]) | inhibition at 75 g/ha (Monochoria vaginalis [7]) | inhibition at 75 g/ha (Digitaria ciliaris)
